The source of these data is patent US11053253B2, “Macrocyclic compounds for treatment of medical disorders” (Achillion Pharmaceuticals, Inc., priority 2017, dated 2021).

Some results are limits rather than exact numbers.

Chain of Human Factor D (P00746 26-253): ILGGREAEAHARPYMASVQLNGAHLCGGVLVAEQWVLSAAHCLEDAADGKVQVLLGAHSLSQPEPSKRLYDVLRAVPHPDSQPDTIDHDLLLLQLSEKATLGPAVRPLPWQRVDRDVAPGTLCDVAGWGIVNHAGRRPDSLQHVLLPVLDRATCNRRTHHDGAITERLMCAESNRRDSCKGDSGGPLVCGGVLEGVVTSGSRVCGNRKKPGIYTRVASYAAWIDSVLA

The target in the test is Human Factor D (Homo sapiens (Human), UniProt P00746). The experiment in a line: Human Factor D Assay. To be noted: Human Factor D 80 nM, substrate Z-L-Lys-SBzl, DTNB, A405; read-out: IC50 (Stars). The format is biochemical. As for the experimental part:
Example 2. Human Factor D Assay
Human Factor D (purified from human serum, Complement Technology, Inc.) at 80 nM final concentration is incubated with test compound at various concentrations for 5 min at room temperature in 50 mM Tris, 1M NaCl, pH 7.5. A synthetic substrate Z-L-Lys-SBzl and DTNB (Ellman's reagent) are added to final concentrations of 100 µM each. Absorbance at 405 nm (A405) is recorded at 30 second intervals for 30 minutes using a microplate spectrophotometer. IC50 values are calculated by nonlinear regression of Complement Factor D reaction rates as a function of test compound concentration.
Broadly, the IC50 is the point on the concentration scale where inhibition reaches its midpoint. Turning to `CC(=O)c1nn(CC(=O)N2C3CC34COCC=CCOCc3ccc(Br)nc3NC(=O)[C@@H]2C4)c2ccc(-c3cnc(C)nc3)cc12` (stereo partly drawn) [Compound T-1, (43S)-44-(2-(3-acetyl-5-(2-methylpyrimidin-5-yl)-1H-indazol-1-yl)acetyl)-16-bromo-6,11-dioxa-44,2-diaza-1(2,3)-pyridina-4(3,1)-bicyclo[3.1.0]hexanacyclododecaphan-8-en-3-one], the IC50 was less than 1000 nM. For `CC(=O)c1nn(CC(=O)N2C3CC34CNC(=O)CCC=CCOCc3ccc(Br)nc3NC(=O)[C@@H]2C4)c2ccc(-c3cnc(C)nc3)cc12` (stereo partly drawn) [Compound T-2, (43S)-44-(2-(3-acetyl-5-(2-methylpyrimidin-5-yl)-1H-indazol-1-yl)acetyl)-16-bromo-13-oxa-44,2,6-triaza-1(2,3)-pyridina-4(3,1)-bicyclo[3.1.0]hexanacyclotetradecaphan-10-ene-3,7-dione] the value was less than 1000 nM. Under `CC(=O)c1nn(CC(=O)N2[C@H]3C[C@@]4(COCC=CCOCc5ccc(Br)nc5NC3=O)C[C@@H]24)c2ccc(-c3cnc(C)nc3)cc12` [Compound T-3, (41R,43S,45S)-42-(2-(3-acetyl-5-(2-methylpyrimidin-5-yl)-1H-indazol-1-yl)acetyl)-16-bromo-6,11-dioxa-42,2-diaza-1(2,3)-pyridina-4(3,5)-bicyclo[3.1.0]hexanacyclododecaphan-8-en-3-one] stands less than 1000 nM; under `CC(=O)c1nn(CC(=O)N2[C@H]3C[C@@]4(COCCCCOCc5ccc(Br)nc5NC3=O)C[C@@H]24)c2ccc(-c3cnc(C)nc3)cc12` [Compound T-4, (41R,43S,45S)-42-(2-(3-acetyl-5-(2-methylpyrimidin-5-yl)-1H-indazol-1-yl)acetyl)-16-bromo-6,11-dioxa-42,2-diaza-1(2,3)-pyridina-4(3,5)-bicyclo[3.1.0]hexanacyclododecaphan-3-one], less than 1000 nM; under `CC(=O)c1nn(CC(=O)N2[C@H]3C[C@@]4(COCC=CCOCc5cccnc5NC3=O)C[C@@H]24)c2ccc(-c3cnc(C)nc3)cc12` [Compound T-5, (41R,43S,45S)-42-(2-(3-acetyl-5-(2-methylpyrimidin-5-yl)-1H-indazol-1-yl)acetyl)-6,11-dioxa-42,2-diaza-1(2,3)-pyridina-4(3,5)-bicyclo[3.1.0]hexanacyclododecaphan-8-en-3-one], less than 1000 nM. For `CC(=O)c1nn(CC(=O)N2[C@H]3C[C@]4(C[C@@H]24)CN(C)CC=CCOCc2ccc(Br)nc2NC3=O)c2ccc(-c3cnc(C)nc3)cc12` [Compound T-6, (41R,43S,45R)-42-(2-(3-acetyl-5-(2-methylpyrimidin-5-yl)-1H-indazol-1-yl)acetyl)-16-bromo-6-methyl-11-oxa-42,2,6-triaza-1(2,3)-pyridina-4(3,5)-bicyclo[3.1.0]hexanacyclododecaphan-8-en-3-one] the value was less than 1000 nM; for `CC(=O)c1nn(CC(=O)N2[C@H]3C[C@]4(C[C@@H]24)CN(C)CCCCOCc2ccc(Br)nc2NC3=O)c2ccc(-c3cnc(C)nc3)cc12` [Compound T-7, (41R,43S,45R)-42-(2-(3-acetyl-5-(2-methylpyrimidin-5-yl)-1H-indazol-1-yl)acetyl)-16-bromo-6-methyl-11-oxa-42,2,6-triaza-1(2,3)-pyridina-4(3,5)-bicyclo[3.1.0]hexanacyclododecaphan-3-one], less than 1000 nM; for `CC(=O)c1nn(CC(=O)N2[C@H]3C[C@]4(C[C@@H]24)CN(C)CCCCC=Cc2ccc(Br)nc2NC3=O)c2ccc(-c3cnc(C)nc3)cc12` [Compound T-8, (41R,43S,45R)-42-(2-(3-acetyl-5-(2-methylpyrimidin-5-yl)-1H-indazol-1-yl)acetyl)-16-bromo-6-methyl-42,2,6-triaza-1(2,3)-pyridina-4(3,5)-bicyclo[3.1.0]hexanacyclododecaphan-11-en-3-one], less than 1000 nM. For the molecule `CC(=O)c1nn(CC(=O)N2[C@H]3C[C@@]4(CNS(=O)(=O)CCC=Cc5ccc(Br)nc5NC3=O)C[C@@H]24)c2ccc(-c3cnc(C)nc3)cc12` [Compound T-9, (41R,43S,45R)-42-(2-(3-acetyl-5-(2-methylpyrimidin-5-yl)-1H-indazol-1-yl)acetyl)-16-bromo-7-thia-42,2,6-triaza-1(2,3)-pyridina-4(3,5)-bicyclo[3.1.0]nexanacycloundecaphan-10-en-3-one 7,7-dioxide], the IC50 is less than 1000 nM. Under `CC(=O)c1nn(CC(=O)N2[C@H]3C[C@@]4(COCC=CCOCc5ccc(Br)nc5NC3=O)C[C@@H]24)c2ccccc12` [Compound T-10, (41R,43S,45S)-42-(2-(3-acetyl-1H-indazol-1-yl)acetyl)-16-bromo-6,11-dioxa-42,2-diaza-1(2,3)-pyridina-4(3,5)-bicyclo[3.1.0]hexanacyclododecaphan-8-en-3-one] stands less than 1000 nM.

For `CC(=O)c1nn(CC(=O)N2[C@H]3C[C@@]4(COCC=CCOCc5ccc(Br)nc5NC3=O)C[C@@H]24)c2cnccc12` [Compound T-11, (41R,43S,45S)-42-(2-(3-acetyl-1H-pyrazolo[3,4-c]pyridin-1-yl)acetyl)-16-bromo-6,11-dioxa-42,2-diaza-1(2,3)-pyridina-4(3,5)-bicyclo[3.1.0]hexanacyclododecaphan-8-en-3-one], the IC50 is less than 1000 nM. For `CC(=O)c1nn(CC(=O)N2[C@H]3C[C@@]4(COCC=CCOCc5ccc(Br)nc5NC3=O)C[C@@H]24)c2c(C)cccc12` [Compound T-12, (41R,43S,45S)-42-(2-(3-acetyl-7-methyl-1H-indazol-1-yl)acetyl)-16-bromo-6,11-dioxa-42,2-diaza-1(2,3)-pyridina-4(3,5)-bicyclo[3.1.0]hexanacyclododecaphan-8-en-3-one] the value was less than 1000 nM; for `CC(=O)c1nn(CC(=O)N2[C@H]3C[C@]4(C[C@@H]24)CN(C)CCCCC=Cc2ccc(Br)nc2NC3=O)c2cnccc12` [Compound T-13, (41R,43S,45R)-42-(2-(3-acetyl-1H-pyrazolo[3,4-c]pyridin-1-yl)acetyl)-16-bromo-6-methyl-42,2,6-triaza-1(2,3)-pyridina-4(3,5)-bicyclo[3.1.0]hexanacyclododecaphan-11-en-3-one], less than 1000 nM; for `CC(=O)c1cc2n(n1)CC(=O)N1[C@@H](C[C@@]3(C)C[C@@H]13)C(=O)Nc1nc(Br)ccc1COC/C=C/CCNC2=O` [Compound T-14, (18aS,19aR,20aR,E)-2-acetyl-15-bromo-19a-methyl-6,7,12,17,18a,19,19a,20,20a,23-decahydro-4H-cyclopropa[4,5]pyrrolo[2,1-g]pyrazolo[1,5-k]pyrido[3,2-c][1,5,8,11,14]oxatetraazacyclononadecine-4,18,22(5H,10H)-trione], more than 10000 nM.

As for `CC(=O)c1cc2n(n1)CC(=O)N1[C@@H](C[C@@]3(C)C[C@@H]13)C(=O)Nc1nc(Br)ccc1COC/C=C\CCNC2=O` [Compound T-15, (18aS,19aR,20aR,Z)-2-acetyl-15-bromo-19a-methyl-6,7,12,17,18a,19,19a,20,20a,23-decahydro-4H-cyclopropa[4,5]pyrrolo[2,1-g]pyrazolo[1,5-k]pyrido[3,2-c][1,5,8,11,14]oxatetraazacyclononadecine-4,18,22(5H,10H)-trione], the IC50 is more than 10000 nM. For `CC(=O)c1nn(CC(=O)N2[C@H]3C[C@@]4(CNS(=O)(=O)CCC=Cc5ccc(Br)nc5NC3=O)C[C@@H]24)c2cnccc12` [Compound T-16, (41R,43S,45R)-42-(2-(3-acetyl-1H-pyrazolo[3,4-c]pyridin-1-yl)acetyl)-16-bromo-7-thia-42,2,6-triaza-1(2,3)-pyridina-4(3,5)-bicyclo[3.1.0]hexanacycloundecaphan-10-en-3-one 7,7-dioxide] the value was less than 1000 nM. For the molecule `CC(=O)c1nn(CC(=O)N2[C@H]3C[C@]4(C[C@@H]24)Cn2cc(nn2)COCc2ccc(Br)nc2NC3=O)c2ccc(-c3cnc(C)nc3)cc12` [Compound T-18, (31R,33S,35R,Z)-32-(2-(3-acetyl-5-(2-methylpyrimidin-5-yl)-1H-indazol-1-yl)acetyl)-66-bromo-11H-8-oxa-32,5-diaza-6(2,3)-pyridina-1(1,4)-triazola-3(5,3)-bicyclo[3.1.0]hexanacyclononaphan-4-one], the IC50 is less than 1000 nM. Under `CC(=O)c1nn(CC(=O)N2[C@H]3C[C@@]4(C=CCCCCN(C)C(=O)Cc5ccc(Br)nc5NC3=O)C[C@@H]24)c2ccc(-c3cnc(C)nc3)cc12` [Compound T-19, (41R,43S,45R)-42-(2-(3-acetyl-5-(2-methylpyrimidin-5-yl)-1H-indazol-1-yl)acetyl)-16-bromo-11-methyl-42,2,11-triaza-1(2,3)-pyridina-4(3,5)-bicyclo[3.1.0]hexanacyclotridecaphan-5-ene-3,12-dione] stands less than 1000 nM; under `CC(=O)c1nn2c3c(cc(-c4cnc(C)nc4)cc13)CCC=CCCCC(=O)NC[C@@]13C[C@@H](C(=O)Nc4nc(Br)ccc4C)N(C(=O)C2)[C@@H]1C3` [Compound T-20, (41R,43S,45R)-13-acetyl-N-(6-bromo-3-methylpyridin-2-yl)-15-(2-methylpyrimidin-5-yl)-3,7-dioxo-11H-42,6-diaza-1(1,7)-indazola-4(2,5)-bicyclo[3.1.0]hexanacyclotetradecaphan-11-ene-43-carboxamide], less than 1000 nM. As to `CC(=O)c1nn2c3c(cc(-c4cnc(C)nc4)cc13)CC=CCCCC(=O)NC[C@@]13C[C@@H](C(=O)Nc4nc(Br)ccc4C)N(C(=O)C2)[C@@H]1C3` [Compound T-21, (41R,43S,45R)-13-acetyl-N-(6-bromo-3-methylpyridin-2-yl)-15-(2-methylpyrimidin-5-yl)-3,7-dioxo-11H-42,6-diaza-1(1,7)-indazoia-4(2,5)-bicyclo[3.1.0]hexanacyclotridecaphan-11-ene-43-carboxamide], the IC50 was less than 1000 nM.
